From patent US20250136586A1, “Substituted 7-(Pyrimidin-4-yl)Quinolin-4(1H)-One Compounds as Cyclin Dependent Kinase Inhibitors” (BeiGene, Ltd., priority 2022, published 2025)

What was measured:
CDK4/Cyclin D1 = CDK4/Cyclin D1 (Homo sapiens (Human), UniProt P11802); assay: TR-FRET kinase inhibition assay, CDK4/Cyclin D1; format: biochemical; settings: 1 mM ATP, 0.15 μM Rb (Ser780)-biotin substrate, read-out: CDK4D1 IC50
Procedure: Compounds disclosed herein were tested for inhibition of CDK4/Cyclin D1 or CDK6/Cyclin D3 kinase in an assay based on the time-resolved fluorescence-resonance energy transfer (TR-FRET) methodology. […] The kinase was incubated with compound for 60 minutes at room temperature and the reaction was initiated by the addition of ATP and Rb (Ser780)-biotin substrate. After reaction at room temperature for 120 minutes, an equal volume of stop/detection solution was added according to the manufacture's instruction (Cisbio Bioassays). The stop/detection solution contained Streptavidin-XL665 and Anti-pRb (Ser780) mAb-Eu Cryptate in Detection buffer (Cisbio Bioassays). […] The inhibition percentage of CDK4/Cyclin D1 or CDK6/Cyclin D3 kinase activity in presence of increasing concentrations of compounds was calculated based on the ratio of fluorescence at 665 nm to that at 620 nm. The IC50 for each compound was derived from fitting the data to the four-parameter logistic equation by Dotmatics.

CDK6/Cyclin D3 = CDK6/Cyclin D3 (Homo sapiens (Human), UniProt Q00534); assay: TR-FRET kinase inhibition assay, CDK6/Cyclin D3; format: biochemical; settings: 1 mM ATP, 0.15 μM Rb (Ser780)-biotin substrate, read-out: CDK6D3 IC50
Sequence of CDK6/Cyclin D3 (Q00534 whole entry): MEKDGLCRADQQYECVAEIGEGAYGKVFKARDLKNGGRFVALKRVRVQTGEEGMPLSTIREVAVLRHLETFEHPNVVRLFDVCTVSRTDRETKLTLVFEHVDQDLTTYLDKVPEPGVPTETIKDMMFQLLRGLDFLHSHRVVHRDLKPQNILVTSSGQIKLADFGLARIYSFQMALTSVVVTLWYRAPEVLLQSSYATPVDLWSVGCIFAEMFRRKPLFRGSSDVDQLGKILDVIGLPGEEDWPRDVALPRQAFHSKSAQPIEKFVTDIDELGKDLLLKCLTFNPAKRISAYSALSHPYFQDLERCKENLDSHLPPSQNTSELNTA
Sequence of CDK6/Cyclin D3 (P30281 whole entry partner): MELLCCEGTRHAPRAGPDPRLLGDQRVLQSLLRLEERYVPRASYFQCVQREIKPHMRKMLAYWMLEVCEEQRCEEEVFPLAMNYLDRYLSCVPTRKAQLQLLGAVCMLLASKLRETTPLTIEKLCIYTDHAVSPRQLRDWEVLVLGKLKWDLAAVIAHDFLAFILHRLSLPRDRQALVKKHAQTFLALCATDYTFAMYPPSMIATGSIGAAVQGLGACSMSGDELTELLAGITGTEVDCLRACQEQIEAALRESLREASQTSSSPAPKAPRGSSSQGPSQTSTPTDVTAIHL
Procedure: Compounds disclosed herein were tested for inhibition of CDK4/Cyclin D1 or CDK6/Cyclin D3 kinase in an assay based on the time-resolved fluorescence-resonance energy transfer (TR-FRET) methodology. The assay was carried out in 384-well low volume black plates in a reaction mixture containing CDK4/Cyclin D1 or CDK6/Cyclin D3, 1 mM ATP, 0.15 μM Rb (Ser780)-biotin substrate and 0-10 μM compound in buffer containing 50 mM HEPES pH7.0, 0.02% NaN3, 0.01% BSA, 0.1 mM Orthovanadate, 50 mM MgCl2, 1 mM DTT and 0.005% Tween-20. The kinase was incubated with compound for 60 minutes at room temperature and the reaction was initiated by the addition of ATP and Rb (Ser780)-biotin substrate. After reaction at room temperature for 120 minutes, an equal volume of stop/detection solution was added according to the manufacture's instruction (Cisbio Bioassays). The stop/detection solution contained Streptavidin-XL665 and Anti-pRb (Ser780) mAb-Eu Cryptate in Detection buffer (Cisbio Bioassays). Plates were incubated at room temperature for 60 minutes, and the TR-FRET signals (ex337 nm, em665 nm/620 nm) were recorded on a PHERAstar FSX plate reader (BMG Labtech). The inhibition percentage of CDK4/Cyclin D1 or CDK6/Cyclin D3 kinase activity in presence of increasing concentrations of compounds was calculated based on the ratio of fluorescence at 665 nm to that at 620 nm. The IC50 for each compound was derived from fitting the data to the four-parameter logistic equation by Dotmatics.

Sequence of CDK4/Cyclin D1 (P11802 whole entry): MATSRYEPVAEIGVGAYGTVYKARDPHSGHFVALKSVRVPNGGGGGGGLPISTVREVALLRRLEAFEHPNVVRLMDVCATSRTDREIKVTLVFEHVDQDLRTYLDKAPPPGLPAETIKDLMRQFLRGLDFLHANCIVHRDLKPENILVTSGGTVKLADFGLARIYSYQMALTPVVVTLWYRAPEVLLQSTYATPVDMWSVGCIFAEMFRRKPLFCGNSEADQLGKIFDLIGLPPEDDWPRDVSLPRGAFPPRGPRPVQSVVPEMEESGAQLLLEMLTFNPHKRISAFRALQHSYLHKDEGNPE
Sequence of CDK4/Cyclin D1 (P24385 whole entry partner): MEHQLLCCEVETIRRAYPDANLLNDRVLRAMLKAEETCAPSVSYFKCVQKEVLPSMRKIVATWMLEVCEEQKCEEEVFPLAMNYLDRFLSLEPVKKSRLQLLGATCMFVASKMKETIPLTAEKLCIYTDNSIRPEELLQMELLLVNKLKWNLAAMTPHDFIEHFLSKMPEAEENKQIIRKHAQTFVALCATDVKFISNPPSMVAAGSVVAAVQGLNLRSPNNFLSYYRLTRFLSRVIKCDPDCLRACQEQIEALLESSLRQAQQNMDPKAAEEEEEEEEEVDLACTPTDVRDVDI

| SMILES | IC50 (CDK4/Cyclin D1) [nM] | IC50 (CDK6/Cyclin D3) [nM] |
| --- | --- | --- |
| COc1cn(C(C)C)c2cc(-c3nc(N[C@@H]4CCOC[C@H]4O)ncc3F)ccc2c1=O [Example 8, 7-(5-fluoro-2-(((3S,4R)-3-hydroxytetrahydro-2H-pyran-4-yl)amino)pyrimidin-4-yl)-1-isopropyl-3-methoxyquinolin-4(11H)-one] | 162 | 1780 |
| Cc1c(CN2CCC(F)(F)CC2)n(C(C)C)c2cc(-c3nc(N[C@@H]4CCOC[C@H]4O)ncc3F)ccc2c1=O [Example 121, 2-((4,4-difluoropiperidin-1-yl)methyl)-7-(5-fluoro-2-(((3S,4R)-3-hydroxytetrahydro-2H-pyran-4-yl)amino)pyrimidin-4-yl)-1-isopropyl-3-methylquinolin-4(1H)-one] | 4.7 | 113 |
| CC(C)n1cc(C(C)(C)O)c(=O)c2ccc(-c3nc(N[C@@H]4CCOC[C@H]4O)ncc3F)cc21 [Example 5, 7-(5-fluoro-2-(((3S,4R)-3-hydroxytetrahydro-2H-pyran-4-yl)amino)pyrimidin-4-yl)-3-(2-hydroxypropan-2-yl)-1-isopropylquinolin-4(1H)-one] | 249 | 3240 |
| CC(C)n1c(CN2C3CCCC2CC(O)C3)cc(=O)c2ccc(-c3nc(N[C@@H]4CCOC[C@H]4O)ncc3F)cc21 (stereo partly drawn) [Example 90, 7-(5-fluoro-2-(((3S,4R)-3-hydroxytetrahydro-2H-pyran-4-yl)amino)pyrimidin-4-yl)-2-(((1R,3R,5S)-3-hydroxy-9-azabicyclo[3.3.1]nonan-9-yl)methyl)-1-isopropylquinolin-4(1H)-one] | 5.7 | 251 |
| CC(C)n1c(CNC(C)(C)C)cc(=O)c2ccc(-c3nc(N[C@@H]4CCOC[C@H]4O)ncc3F)cc21 [Example 75, 2-((tert-butylamino)methyl)-7-(5-fluoro-2-(((3S,4R)-3-hydroxytetrahydro-2H-pyran-4-yl)amino)pyrimidin-4-yl)-1-isopropylquinolin-4(1H)-one] | 21 | 525 |
| CC(C)n1c(CN2[C@H](C)COC[C@@H]2C)cc(=O)c2ccc(-c3nc(N[C@@H]4CCOC[C@H]4O)ncc3F)cc21 [Example 107, 2-(((3R,5S)-3,5-dimethylmorpholino)methyl)-7-(5-fluoro-2-(((3S,4R)-3-hydroxytetrahydro-2H-pyran-4-yl)amino)pyrimidin-4-yl)-1-isopropylquinolin-4(1H)-one] | 7.4 | 340 |
| Cc1c(CNC2CC2)n(C(C)C)c2cc(-c3nc(N[C@@H]4CCOC[C@H]4O)ncc3F)ccc2c1=O [Example 109, 2-((cyclopropylamino)methyl)-7-(5-fluoro-2-(((3S,4R)-3-hydroxytetrahydro-2H-pyran-4-yl)amino)pyrimidin-4-yl)-1-isopropyl-3-methylquinolin-4(1H)-one] | 6.2 | 211 |
| CC(C)n1c(CN2CCC[C@]3(CCN(C)C3=O)C2)cc(=O)c2ccc(-c3nc(N[C@@H]4CCOC[C@H]4O)ncc3F)cc21 [Example 52, (S)-7-((7-(5-fluoro-2-(((3S,4R)-3-hydroxytetrahydro-2H-pyran-4-yl)amino)pyrimidin-4-yl)-1-isopropyl-4-oxo-1,4-dihydroquinolin-2-yl)methyl)-2-methyl-2,7-diazaspiro[4,5]decan-1-one] | 6.4 | 467 |
| CC(C)n1c(CN2CCC[C@@H](F)C2)cc(=O)c2ccc(-c3nc(N[C@@H]4CCOC[C@H]4O)ncc3F)cc21 [Example 98, 7-(5-fluoro-2-(((3S,4R)-3-hydroxytetrahydro-2H-pyran-4-yl)amino)pyrimidin-4-yl)-2-(((R)-3-fluoropiperidin-1-yl)methyl)-1-isopropylquinolin-4(1H)-one] | 8.6 | 370 |
| Cc1c(CO)n(C(C)C)c2cc(-c3nc(N[C@@H]4CCOC[C@H]4O)ncc3F)ccc2c1=O [Example 119, 7-(5-fluoro-2-(((3S,4R)-3-hydroxytetrahydro-2H-pyran-4-yl)amino)pyrimidin-4-yl)-2-(hydroxymethyl)-1-isopropyl-3-methylquinolin-4(1H)-one] | 9.1 | 273 |
| Cc1c(CN2[C@@H](C)COC[C@@H]2C)n(C(C)C)c2cc(-c3nc(N[C@@H]4CCOC[C@H]4O)ncc3F)ccc2c1=O [Example 118, 2-(((3S,5S)-3,5-dimethylmorpholino)methyl)-7-(5-fluoro-2-(((3S,4R)-3-hydroxytetrahydro-2H-pyran-4-yl)amino)pyrimidin-4-yl)-1-isopropyl-3-methylquinolin-4(1H)-one] | 1.1 | 51.7 |
| Cc1c(C2CCN2C)n(C(C)C)c2cc(-c3nc(N[C@@H]4CCOC[C@H]4O)ncc3F)ccc2c1=O (stereo partly drawn) [Example 387, 7-(5-fluoro-2-(((3S,4R)-3-hydroxytetrahydro-2H-pyran-4-yl)amino)pyrimidin-4-yl)-1-isopropyl-3-methyl-2-(1-methylazetidin-2-yl)quinolin-4(1H)-one] | 5.1 | 237 |
| CC(C)n1c(CN2CCC3(CCCO3)C2)cc(=O)c2ccc(-c3nc(N[C@@H]4CCOC[C@H]4O)ncc3F)cc21 (stereo partly drawn) [Example 91, 2-((1-oxa-7-azaspiro[4.4]nonan-7-yl)methyl)-7-(5-fluoro-2-(((3S,4R)-3-hydroxytetrahydro-2H-pyran-4-yl)amino)pyrimidin-4-yl)-1-isopropylquinolin-4(1H)-one] | 24 | 1060 |
| CC(C)n1c(CN2C3COCC2C3)cc(=O)c2ccc(-c3nc(N[C@@H]4CCOC[C@H]4O)ncc3F)cc21 [Example 68, 2-((3-oxa-6-azabicyclo[3.1.1]heptan-6-yl)methyl)-7-(5-fluoro-2-(((3S,4R)-3-hydroxytetrahydro-2H-pyran-4-yl)amino)pyrimidin-4-yl)-1-isopropylquinolin-4(1H)-one] | 34 | 1220 |
| Cc1cc(=O)c2ccc(-c3nc(N[C@@H]4CCOC[C@H]4O)ncc3Cl)cc2n1C(C)C [Example 11, 7-(5-chloro-2-(((3S,4R)-3-hydroxytetrahydro-2H-pyran-4-yl)amino)pyrimidin-4-yl)-1-isopropyl-2-methylquinolin-4(1H)-one] | 28 | 420 |
| Cc1c(CN2CCOCC2)n(C(C)C)c2cc(-c3nc(N[C@@H]4CCOC[C@H]4O)ncc3F)ccc2c1=O [Example 58, 7-(5-fluoro-2-(((3S,4R)-3-hydroxytetrahydro-2H-pyran-4-yl)amino)pyrimidin-4-yl)-1-isopropyl-3-methyl-2-(morpholinomethyl)quinolin-4(1H)-one] | 3.4 | 78.2 |
| Cc1c(CN2[C@H](C)COC[C@H]2C)n(C(C)C)c2cc(-c3nc(N[C@@H]4CCOC[C@H]4O)ncc3F)ccc2c1=O [Example 71, 2-(((3R,5R)-3,5-dimethylmorpholino)methyl)-7-(5-fluoro-2-(((3S,4R)-3-hydroxytetrahydro-2H-pyran-4-yl)amino)pyrimidin-4-yl)-1-isopropyl-3-methylquinolin-4(1H)-one] | 2.7 | 140 |
| CC(C)n1c(CN2CC[C@@H](F)C2)cc(=O)c2cc(F)c(-c3nc(N[C@@H]4CCOC[C@H]4O)ncc3F)cc21 [Example 114, 6-fluoro-7-(5-fluoro-2-(((3S,4R)-3-hydroxytetrahydro-2H-pyran-4-yl)amino)pyrimidin-4-yl)-2-(((R)-3-fluoropyrrolidin-1-yl)methyl)-1-isopropylquinolin-4(1H)-one] | 40 | 640 |
| Cc1c(CN2CCC(C)(O)CC2)n(C(C)C)c2cc(-c3nc(N[C@@H]4CCOC[C@H]4O)ncc3F)ccc2c1=O [Example 103, 7-(5-fluoro-2-(((3S,4R)-3-hydroxytetrahydro-2H-pyran-4-yl)amino)pyrimidin-4-yl)-2-((4-hydroxy-4-methylpiperidin-1-yl)methyl)-1-isopropyl-3-methylquinolin-4(1H)-one] | 12 | 516 |
| CC(C)n1c(CN2C[C@@H](F)[C@@H](O)C2)cc(=O)c2ccc(-c3nc(N[C@@H]4CCOC[C@H]4O)ncc3F)cc21 [Example 45, 7-(5-fluoro-2-(((3S,4R)-3-hydroxytetrahydro-2H-pyran-4-yl)amino)pyrimidin-4-yl)-2-(((3R,4S)-3-fluoro-4-hydroxypyrrolidin-1-yl)methyl)-1-isopropylquinolin-4(1H)-one] | 21 | 651 |
